# According to patent US12123048B2, “Fluorinated 4′-alkylumbelliferyl a-D-glucopyranosides, biological sterilization indicators including the same and methods of using the same” (3M INNOVATIVE PROPERTIES COMPANY, priority 2018, dated 2024):
# Test: Fluorescence of control wells containing enzyme substrate in LB broth without spores
# Format: physicochemical
# Conditions: substrate 0.3 mg/mL, 60° C.
# Experimental: Luria-Bertani (LB) broth was prepared by dissolving tryptone (10 g/L), yeast extract (5 g/L), and NaCl (5 g/L) in deionized water. In the examples, 6′-fluoro-4′-methylumbelliferyl α-D-glucopyranoside (0.3 mg/mL) or 5′-fluoro-4′-methylumbelliferyl α-D-glucopyranoside (0.3 mg/mL) was added to the broth. In the comparative examples, 4′-methylumbelliferyl α-D-glucopyranoside (MUG) (0.3 mg/mL) or 6′,8′-Difluoro-4′-methylumbelliferyl α-D-glucopyranoside (0.3 mg/mL) was added to the broth. The pH of the broth was adjusted to either pH 6, pH 7, pH 8, or pH 9 using 0.1 N hydrochloric acid or 1N sodium hydroxide solutions. The broth was passed through a 0.22 micron filter prior to use.
# LB broth (pH 6) containing 6′-fluoro-4′-methylumbelliferyl α-D-glucopyranoside (0.3 mg/mL) (enzyme substrate of Example 1) was added to two wells (100 microliters per well) of a black 96-well microtiter plate with optically clear, flat bottom wells (NUNC #165301, Thermo Fisher Scientific, Waltham, MA). A 5 microliter aqueous suspension containing 5×10^6 Geobacillus stearothermophilus spores (ATCC 7953) was added to each well of the microtiter plate. Next, the contents of each well were mixed using a multiple aspiration/delivery sequence with the pipet. […] The top of the plate was covered with an optically clear sealing film (product #4311971, Applied Biosystems Corporation, Foster City, CA). The plate was warmed at 60° C. and shaken in a linear direction. Fluorescence readings (360 nm excitation/450 nm emission at 50% gain) were taken from the bottom of the plate. A reading was taken at an initial time point of 10 seconds and then at +1 minute intervals thereafter. A Synergy Neo2 fluorescence plate reader (BioTek Company, Winooski, VT) was used. In Table 1, the mean fluorescence values detected (RFU) at times of 10 seconds, +5 minutes, +10 minutes, and +30 minutes are reported. The mean fluorescence values detected for the control wells were 978 RFU at 10 seconds; 920 RFU at +5 minutes; 870 RFU at +10 minutes, and 746 RFU at +30 minutes.
# LB broth (pH 7) containing 6′-fluoro-4′-methylumbelliferyl α-D-glucopyranoside (0.3 mg/mL) (enzyme substrate of Example 1) was added to two wells (100 microliters per well) of a black 96-well microtiter plate with optically clear, flat bottom wells (NUNC #165301, Thermo Fisher Scientific). A 5 microliter aqueous suspension containing 5×10^6 Geobacillus stearothermophilus spores (ATCC 7953) was added to each well of the microtiter plate. Next, the contents of each well were mixed using a multiple aspiration/delivery sequence with the pipet. […] The top of the plate was covered with an optically clear sealing film (product #4311971, Applied Biosystems Corporation). The plate was warmed at 60° C. and shaken in a linear direction. Fluorescence readings (360 nm excitation/450 nm emission at 50% gain) were taken from the bottom of the plate. A reading was taken at an initial time point of 10 seconds and then at +1 minute intervals thereafter. A Synergy Neo2 fluorescence plate reader (BioTek Company) was used. In Table 2, the mean fluorescence values detected (RFU) at times of 10 seconds, +5 minutes, +10 minutes, and +30 minutes are reported. The mean fluorescence values detected for the control wells were 989 RFU at 10 seconds; 936 RFU at +5 minutes; 895 RFU at +10 minutes, and 763 RFU at +30 minutes.
# LB broth (pH 8) containing 6′-fluoro-4′-methylumbelliferyl α-D-glucopyranoside (0.3 mg/mL) (enzyme substrate of Example 1) was added to two wells (100 microliters per well) of a black 96-well microtiter plate with optically clear, flat bottom wells (NUNC #165301, Thermo Fisher Scientific). A 5 microliter aqueous suspension containing 5×10^6 Geobacillus stearothermophilus spores (ATCC 7953) was added to each well of the microtiter plate. Next, the contents of each well were mixed using a multiple aspiration/delivery sequence with the pipet. […]
SMILES,"mean fluorescence values detected for the control wells (pH 6 LB broth, 10 seconds)","mean fluorescence values detected for the control wells (pH 6 LB broth, +5 minutes)","mean fluorescence values detected for the control wells (pH 6 LB broth, +10 minutes)","mean fluorescence values detected for the control wells (pH 6 LB broth, +30 minutes)","mean fluorescence values detected for the control wells (pH 7 LB broth, 10 seconds)","mean fluorescence values detected for the control wells (pH 7 LB broth, +5 minutes)","mean fluorescence values detected for the control wells (pH 7 LB broth, +10 minutes)","mean fluorescence values detected for the control wells (pH 7 LB broth, +30 minutes)","mean fluorescence values detected for the control wells (pH 8 LB broth, 10 seconds)","mean fluorescence values detected for the control wells (pH 8 LB broth, +5 minutes)","mean fluorescence values detected for the control wells (pH 8 LB broth, +10 minutes)","mean fluorescence values detected for the control wells (pH 8 LB broth, +30 minutes)","mean fluorescence values detected for the control wells (pH 9 LB broth, 10 seconds)","mean fluorescence values detected for the control wells (pH 9 LB broth, +5 minutes)","mean fluorescence values detected for the control wells (pH 9 LB broth, +10 minutes)","mean fluorescence values detected for the control wells (pH 9 LB broth, +30 minutes)"
"Cc1cc(=O)oc2cc(O[C@H]3O[C@H](CO)[C@@H](O)[C@H](O)[C@H]3O)c(F)cc12 [Example 1, 6′-Fluoro-4′-methylumbelliferyl α-D-glucopyranoside]",978 RFU,920 RFU,870 RFU,746 RFU,989 RFU,936 RFU,895 RFU,763 RFU,940 RFU,884 RFU,845 RFU,723 RFU,825 RFU,772 RFU,738 RFU,633 RFU
"Cc1cc(=O)oc2cc(O[C@H]3O[C@H](CO)[C@@H](O)[C@H](O)[C@H]3O)cc(F)c12 [Example 2, 5′-Fluoro-4′-methylumbelliferyl α-D-glucopyranoside]",828 RFU,784 RFU,738 RFU,622 RFU,720 RFU,679 RFU,646 RFU,547 RFU,616 RFU,573 RFU,538 RFU,455 RFU,501 RFU,449 RFU,421 RFU,365 RFU
"Cc1cc(=O)oc2c(F)c(O[C@H]3O[C@H](CO)[C@@H](O)[C@H](O)[C@H]3O)c(F)cc12 [Comparative Example A, 6′,8′-Difluoro-4′-methylumbelliferyl α-D-glucopyranoside]","1,768 RFU","1,750 RFU","1,743 RFU","1,805 RFU","1,536 RFU","1,519 RFU","1,508 RFU","1,439 RFU","2,547 RFU","2,601 RFU","2,666 RFU","3,020 RFU","1,381 RFU","1,397 RFU","1,496 RFU","2,521 RFU"
"Cc1cc(=O)oc2cc(O[C@H]3O[C@H](CO)[C@@H](O)[C@H](O)[C@H]3O)ccc12 [MUG, 4′-methylumbelliferyl-α-D-glucopyranoside]",868 RFU,802 RFU,756 RFU,656 RFU,722 RFU,670 RFU,636 RFU,557 RFU,628 RFU,569 RFU,535 RFU,463 RFU,494 RFU,436 RFU,406 RFU,338 RFU
